Experimental findings from US6465496B1, “Torsemide polymorphs” (Teva Pharmaceutical Industries, Ltd., priority 1999, dated 2002) are described below.

Assay type in all cases: physicochemical
Data set [1] can be described thus: stability of the crystal form in an ethanol slurry. The note with it: stirred at room temperature. The method, then: (§1) In another embodiment of the present invention, torsemide modification I may be made from torsemide modification II by reslurry in ethanol. By the process of the present invention, torsemide modification II is stirred at room temperature in ethanol for a time sufficient to induce the transformation of torsemide modification II to torsemide modification I. Preferably the mixture is stirred for 2 hours. Torsemide modification I is isolated upon filtering the mixture followed by drying under high vacuum at a temperature of about 40° C. to about 60° C. for a sufficient time to complete drying. Drying is complete upon reaching constant weight. It has been observed that torsemide modification I is stable in an ethanol slurry for at least 65 hours.
as §1, with “dimethyl formamide (DMF).” for “ethanol.”, “methods” for “process”, “DMF” for “ethanol”, “I.” for “I. Preferably the mixture is stirred for 2 hours.”, “It has been observed that torsemide modification I is stable in an ethanol slurry for at least 65 hours.” left out

The nature of data set [2]: pH at which torsemide begins to precipitate on acidifying the basified aqueous/alcohol solution. The settings on record: water/organic solvent (isopropanol or ethanol) solution, pH lowered with acid. As for the experimental part:
An organic solvent is then added to the torsemide solution with stirring. Suitable solvents include water soluble or partially water soluble alcohols such as propanol, isopropanol and ethanol. Preferably, the solvent is isopropanol or ethanol. The pH of the torsemide solution is then lowered by the addition of a suitable acid until the solution begins to become cloudy and torsemide Dupont Form 2 begins to precipitate. Torsemide begins to precipitate at about pH 6. Suitable acids include acetic acid, hydrochloric acid, sulfuric acid, mineral acids and the like. Acetic acid is preferred. Since torsemide is known to decompose at pH 3.0, the pH of the solution is preferably maintained at about 6±0.1 with a minimum pH of […] and a maximum pH of 7.5±0.5. Torsemide Dupont Form 2 is then isolated by filtration and drying to remove solvent.
An organic solvent is then added to the torsemide solution with stirring. Suitable solvents include water soluble or partially water soluble alcohols such as propanol, isopropanol and ethanol. Preferably, the solvent is isopropanol or ethanol. The pH of the torsemide solution is then lowered by the addition of a suitable acid until the solution begins to become cloudy and torsemide Dupont Form 2 solvent adduct begins to precipitate. Torsemide begins to precipitate at about pH 6. […]

A short description of data set [3]: solubility of amorphous torsemide compared with crystalline forms. The settings on record: compared with crystalline forms reported in U.S. Pat. No. 5,914,336, U.S. Pat. No. Re. 34,672 and WO 00/20395.

As to `Cc1cccc(Nc2ccncc2S(=O)(=O)NC(=O)NC(C)C)c1` [torsemide modification I], in data set [1], the “time stable in an ethanol slurry” value is recorded as “at least 65 hours”. As for `Cc1cccc(Nc2ccncc2S(=O)(=O)NC(=O)NC(C)C)c1` [torsemide, 1-Isopropyl-3-[(4-m-toluidino-3-pyridyl)sulfonyl]urea], in data set [2], the “pH at which torsemide begins to precipitate” value is “about 6 pH”. For `Cc1cccc(Nc2ccncc2S(=O)(=O)NC(=O)NC(C)C)c1` [amorphous torsemide], the “solubility relative to crystalline forms of torsemide” value in data set [3] is “more soluble than crystalline forms of torsemide”.
